Experimental data taken from US9676757B2, “Heterocyclic compounds as NaV channel inhibitors and uses thereof” (Merck Patent GmbH, priority 2014, dated 2017).
Read-outs that look alike come from different tables or passages of the source.

Molecular target: Nav1.6 (Homo sapiens, UniProt Q9UQD0)
Assay: Nav two-pulse protocol, IonWorks Quattro electrophysiology
Type: cell-based
Conditions: -120 mV to 0 mV, compound incubated 300 s
Experimental: Compound Plate Preparation
Supplied compounds were sent as Assay Ready Plates, with 2 μL per well of compound in DMSO at 300× the final assay concentrations as described above and in the project proposal. All assay plates are stored at in a −80° C. freezer.
On the day of the assay, 198 μL of external solution was added to the appropriate assay plate and mixed thoroughly. This provided a 1:100 dilution. A further 1:3 dilution occurred upon addition to the cells in the IonWorks, giving a 1:300 dilution in total.
On each assay plate, at least 8 wells were reserved for vehicle control (0.3% DMSO) and at least 8 wells for each positive control specific to the cell line tested. The positive controls were tested in an 8-point dose response with 3-fold dilutions to determine an IC50 value for each run. The positive control compounds are outlined below.
Ion Channel Positive Control & Concentrations
Nav1.6/1.2 Lidocaine: 8, 3-fold dilutions starting at 100 μM
Electrophysiological Recording Solutions
The solutions for recording currents were are follows:
Amphotericin B was used to obtain electrical access to the cell interior at a final concentration of 200 μg/ml in internal recording solution.
Experimental Protocols & Data Analysis
Nav currents were evoked by stepping from a holding potential of −120 mV to 0 mV for 2.5 s (pulse 1), followed by a 5 ms inter-pulse interval, and stepping from a holding potential of −120 mV to 0 mV for 20 ms (pulse 2). The voltage protocol was applied (Pre), compounds added, incubated for 300 seconds, and the voltage protocol was applied a final time (Post) on the IonWorks Quattro.
The parameters measured were the maximum inward current evoked on stepping to 0 mV from the 1st and 2nd pulse. All data were filtered for seal quality, seal drop, and current amplitude. The peak current amplitude (Peak) was calculated before (Pre) and after (Post) compound addition to the amount of block was assessed by dividing the Post-compound current amplitude by the Pre-compound current amplitude. These procedures were implemented for the 1st and 2nd pulse.

Chain of Nav1.6 (Q9UQD0 whole entry): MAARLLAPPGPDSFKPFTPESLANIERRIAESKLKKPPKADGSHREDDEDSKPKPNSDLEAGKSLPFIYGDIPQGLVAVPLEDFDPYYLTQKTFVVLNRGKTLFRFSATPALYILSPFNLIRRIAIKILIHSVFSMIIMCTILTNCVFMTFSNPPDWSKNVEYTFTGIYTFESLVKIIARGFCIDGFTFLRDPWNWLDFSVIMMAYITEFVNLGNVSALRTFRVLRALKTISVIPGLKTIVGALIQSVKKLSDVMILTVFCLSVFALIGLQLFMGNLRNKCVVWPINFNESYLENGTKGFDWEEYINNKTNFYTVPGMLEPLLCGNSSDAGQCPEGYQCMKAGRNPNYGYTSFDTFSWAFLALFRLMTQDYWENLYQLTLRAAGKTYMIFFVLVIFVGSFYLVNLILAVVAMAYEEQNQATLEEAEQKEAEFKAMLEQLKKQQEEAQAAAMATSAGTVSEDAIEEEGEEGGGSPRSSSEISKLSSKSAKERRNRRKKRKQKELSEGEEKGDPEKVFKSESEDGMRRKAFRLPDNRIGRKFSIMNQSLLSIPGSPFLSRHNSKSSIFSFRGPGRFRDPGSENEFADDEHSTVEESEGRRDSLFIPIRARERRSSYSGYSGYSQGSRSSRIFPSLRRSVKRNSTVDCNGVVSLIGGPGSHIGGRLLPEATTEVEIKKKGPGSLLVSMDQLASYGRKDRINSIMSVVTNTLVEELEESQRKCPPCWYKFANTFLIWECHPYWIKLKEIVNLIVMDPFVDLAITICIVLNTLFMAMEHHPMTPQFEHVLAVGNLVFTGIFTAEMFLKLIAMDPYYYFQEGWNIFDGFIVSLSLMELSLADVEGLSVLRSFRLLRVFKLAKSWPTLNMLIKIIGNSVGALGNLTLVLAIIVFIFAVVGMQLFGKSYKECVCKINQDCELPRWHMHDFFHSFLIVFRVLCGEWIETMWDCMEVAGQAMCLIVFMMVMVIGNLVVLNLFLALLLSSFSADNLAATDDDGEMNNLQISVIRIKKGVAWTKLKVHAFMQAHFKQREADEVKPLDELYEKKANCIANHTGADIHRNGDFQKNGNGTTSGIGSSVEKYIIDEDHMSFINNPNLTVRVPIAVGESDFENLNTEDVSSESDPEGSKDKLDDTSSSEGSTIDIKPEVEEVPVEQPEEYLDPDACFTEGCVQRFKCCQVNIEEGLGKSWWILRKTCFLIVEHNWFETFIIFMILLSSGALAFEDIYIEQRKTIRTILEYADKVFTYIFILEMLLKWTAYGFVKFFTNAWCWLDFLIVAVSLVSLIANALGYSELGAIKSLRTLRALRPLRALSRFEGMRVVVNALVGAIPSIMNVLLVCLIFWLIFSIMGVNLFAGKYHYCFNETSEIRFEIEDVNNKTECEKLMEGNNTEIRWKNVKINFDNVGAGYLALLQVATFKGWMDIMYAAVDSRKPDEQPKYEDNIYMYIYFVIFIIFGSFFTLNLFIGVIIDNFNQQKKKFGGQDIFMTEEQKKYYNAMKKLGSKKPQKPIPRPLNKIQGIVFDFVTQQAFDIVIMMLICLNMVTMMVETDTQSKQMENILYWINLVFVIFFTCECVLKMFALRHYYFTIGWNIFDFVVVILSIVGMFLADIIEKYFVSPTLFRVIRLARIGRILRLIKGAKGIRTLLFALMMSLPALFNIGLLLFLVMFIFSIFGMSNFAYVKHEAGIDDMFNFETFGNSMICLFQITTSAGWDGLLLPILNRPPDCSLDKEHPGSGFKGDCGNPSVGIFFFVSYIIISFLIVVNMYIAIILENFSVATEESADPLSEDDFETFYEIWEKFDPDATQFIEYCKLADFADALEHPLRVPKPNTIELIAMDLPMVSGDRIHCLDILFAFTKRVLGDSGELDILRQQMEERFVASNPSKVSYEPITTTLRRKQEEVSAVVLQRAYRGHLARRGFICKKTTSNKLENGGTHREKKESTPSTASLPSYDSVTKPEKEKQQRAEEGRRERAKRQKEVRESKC

| Structure (SMILES) | IC50 (read-out: Nav1.6 Tonic) [µM] | IC50 (read-out: Nav1.6 inac) [µM] |
| --- | --- | --- |
| COc1cccc(-c2cn(C3CCN(Cc4cccc(OCC(C)C)c4)C3)nn2)n1 (stereo not shown) [Compound 62, 2-{1-[1-(3-Isobutoxy-benzyl)-pyrrolidin-3-yl]-1H-[1,2,3]triazol-4-yl}-6-methoxy-pyridine] | > 20 | 1 to 5 |
| CC(C)COc1cccc(CN2CCC(n3cc(-c4cccc(Br)n4)nn3)C2)c1 (stereo not shown) [Compound 63, 2-Bromo-6-{1-[1-(3-isobutoxy-benzyl)-pyrrolidin-3-yl]-1H-[1,2,3]triazol-4-yl}-pyridine] | > 20 | > 5 |
| CC(C)COc1cccc(CN2CCC(c3nnc(CO)o3)C2)c1 (stereo not shown) [Compound 64, {5-[1-(3-Isobutoxy-benzyl)-pyrrolidin-3-yl]-[1,3,4]oxadiazol-2-yl}-methanol] | > 20 | 1 to 5 |
| O=C(NCc1ccc(OC(F)(F)F)cc1)C1CCN(Cc2cccc(Oc3ccccc3)c2)C1 (stereo not shown) [Compound 67, 1-(3-Phenoxy-benzyl)-pyrrolidine-3-carboxylic acid 4-trifluoromethoxy-benzylamide] | 10 to 20 | < 1 |
| O=C(NCc1ccc(C(F)(F)F)cc1)C1CCN(Cc2cccc(Oc3ccccc3)c2)C1 (stereo not shown) [Compound 71, 1-(3-Phenoxy-benzyl)-pyrrolidine-3-carboxylic acid 4-trifluoromethyl-benzylamide] | 10 to 20 | 1 to 5 |
| O=C(NCc1ccccc1C(F)(F)F)C1CCN(Cc2cccc(Oc3ccccc3)c2)C1 (stereo not shown) [Compound 72, 1-(3-Phenoxy-benzyl)-pyrrolidine-3-carboxylic acid 2-trifluoromethyl-benzylamide] | 10 to 20 | 1 to 5 |
| O=C(NCc1cc(F)cc(F)c1)C1CCN(Cc2cccc(Oc3ccccc3)c2)C1 (stereo not shown) [Compound 76, 1-(3-Phenoxy-benzyl)-pyrrolidine-3-carboxylic acid 3,5-difluoro-benzylamide] | 10 to 20 | < 1 |
| O=C(NCc1cc(F)ccc1F)C1CCN(Cc2cccc(Oc3ccccc3)c2)C1 (stereo not shown) [Compound 77, 1-(3-Phenoxy-benzyl)-pyrrolidine-3-carboxylic acid 2,5-difluoro-benzylamide] | 10 to 20 | < 1 |
| O=C(NCc1ccc(F)cc1F)C1CCN(Cc2cccc(Oc3ccccc3)c2)C1 (stereo not shown) [Compound 78, 1-(3-Phenoxy-benzyl)-pyrrolidine-3-carboxylic acid 2,4-difluoro-benzylamide] | 10 to 20 | 1 to 5 |
| CC(C)(C)c1ccc(CNC(=O)C2CCN(Cc3cccc(Oc4ccccc4)c3)C2)cc1 (stereo not shown) [Compound 81, 1-(3-Phenoxy-benzyl)-pyrrolidine-3-carboxylic acid 4-tert-butyl-benzylamide] | 10 to 20 | < 1 |
| O=C(NCc1nc(-c2ccccc2)cs1)C1CCN(Cc2cccc(Oc3ccccc3)c2)C1 (stereo not shown) [Compound 85, 1-(3-Phenoxy-benzyl)-pyrrolidine-3-carboxylic acid (4-phenyl-thiaz-1-2-ylmethyl)-amide] | > 20 | 1 to 5 |
| O=C(NCCc1c[nH]cn1)C1CCN(Cc2cccc(Oc3ccccc3)c2)C1 (stereo not shown) [Compound 86, 1-(3-Phenoxy-benzyl)-pyrrolidine-3-carboxylic acid [2-(1H-imidazol-4-yl)-ethyl]-amide] | – | > 5 |
| O=C(NCC1CCCO1)C1CCN(Cc2cccc(Oc3ccccc3)c2)C1 (stereo not shown) [Compound 87, 1-(3-Phenoxy-benzyl)-pyrrolidine-3-carboxylic acid (tetrahydro-furan-2-ylmethyl)-amide] | < 10 | < 1 |
| O=C(NCc1cccs1)C1CCN(Cc2cccc(Oc3ccccc3)c2)C1 (stereo not shown) [Compound 88, 1-(3-Phenoxy-benzyl)-pyrrolidine-3-carboxylic acid (thiophen-2-ylmethyl)-amide] | > 20 | < 1 |
| Cc1cnc(CNC(=O)C2CCN(Cc3cccc(OCC(F)(F)F)c3)C2)cn1 (stereo not shown) [Compound 89, 1-[3-(2,2,2-Trifluoro-ethoxy)-benzyl]-pyrrolidine-3-carboxylic acid (5-methyl-pyrazin-2-ylmethyl)-amide] | > 20 | 1 to 5 |

Further lines, results first:

| IC50 (read-out: Nav1.6 Tonic) [µM] | IC50 (read-out: Nav1.6 inac) [µM] | Structure (SMILES) |
| --- | --- | --- |
| > 20 | < 1 | COc1ccccc1CNC(=O)C1CCN(Cc2cccc(Oc3ccccc3)c2)C1 (stereo not shown) [Compound 65, 1-(3-Phenoxy-benzyl)-pyrrolidine-3-carboxylic acid 2-methoxy-benzylamide] |
| 10 to 20 | < 1 | COc1ccc(CNC(=O)C2CCN(Cc3cccc(Oc4ccccc4)c3)C2)cc1 (stereo not shown) [Compound 66, 1-(3-Phenoxy-benzyl)-pyrrolidine-3-carboxylic acid 4-methoxy-benzylamide] |
| 10 to 20 | 1 to 5 | O=C(NCc1ccc(Cl)cc1)C1CCN(Cc2cccc(Oc3ccccc3)c2)C1 (stereo not shown) [Compound 68, 1-(3-Phenoxy-benzyl)-pyrrolidine-3-carboxylic acid 4-chloro-benzylamide] |
| > 20 | < 1 | O=C(NCc1cccc(Cl)c1)C1CCN(Cc2cccc(Oc3ccccc3)c2)C1 (stereo not shown) [Compound 69, 1-(3-Phenoxy-benzyl)-pyrrolidine-3-carboxylic acid 3-chloro-benzylamide] |
| 10 to 20 | 1 to 5 | O=C(NCc1cccc(C(F)(F)F)c1)C1CCN(Cc2cccc(Oc3ccccc3)c2)C1 (stereo not shown) [Compound 70, 1-(3-Phenoxy-benzyl)-pyrrolidine-3-carboxylic acid 3-trifluoromethyl-benzylamide] |
| 10 to 20 | 1 to 5 | O=C(NCc1ccccc1F)C1CCN(Cc2cccc(Oc3ccccc3)c2)C1 (stereo not shown) [Compound 73, 1-(3-Phenoxy-benzyl)-pyrrolidine-3-carboxylic acid 2-fluoro-benzylamide] |
| 10 to 20 | 1 to 5 | O=C(NCc1cccc(F)c1)C1CCN(Cc2cccc(Oc3ccccc3)c2)C1 (stereo not shown) [Compound 74, 1-(3-Phenoxy-benzyl)-pyrrolidine-3-carboxylic acid 3-fluoro-benzylamide] |
| 10 to 20 | 1 to 5 | O=C(NCc1ccc(F)cc1)C1CCN(Cc2cccc(Oc3ccccc3)c2)C1 (stereo not shown) [Compound 75, 1-(3-Phenoxy-benzyl)-pyrrolidine-3-carboxylic acid 4-fluoro-benzylamide] |
| 10 to 20 | < 1 | O=C(NCc1c(F)cccc1F)C1CCN(Cc2cccc(Oc3ccccc3)c2)C1 (stereo not shown) [Compound 79, 1-(3-Phenoxy-benzyl)-pyrrolidine-3-carboxylic acid 2,6-difluoro-benzylamide] |
| 10 to 20 | < 1 | O=C(NCc1ccc(F)c(F)c1)C1CCN(Cc2cccc(Oc3ccccc3)c2)C1 (stereo not shown) [Compound 80, 1-(3-Phenoxy-benzyl)-pyrrolidine-3-carboxylic acid 3,4-difluoro-benzylamide] |
| 10 to 20 | < 1 | Cc1cccc(CNC(=O)C2CCN(Cc3cccc(Oc4ccccc4)c3)C2)c1 (stereo not shown) [Compound 82, 1-(3-Phenoxy-benzyl)-pyrrolidine-3-carboxylic acid 3-methyl-benzylamide] |
| > 20 | 1 to 5 | Cc1ccc(CNC(=O)C2CCN(Cc3cccc(Oc4ccccc4)c3)C2)cc1 (stereo not shown) [Compound 83, 1-(3-Phenoxy-benzyl)-pyrrolidine-3-carboxylic acid 4-methyl-benzylamide] |
| 10 to 20 | < 1 | Cc1ccc(F)cc1CNC(=O)C1CCN(Cc2cccc(Oc3ccccc3)c2)C1 (stereo not shown) [Compound 84, 1-(3-Phenoxy-benzyl)-pyrrolidine-3-carboxylic acid 5-fluoro-2-methyl-benzylamide] |
